# Tested on: transgenic mice that express both human CETP and human apolipoprotein A-1
# Assay: Assay of plasma lipids in vivo (HDL cholesterol elevation)
# Settings: single oral dose 30 mg/kg; 8 hr after dosing; serum HDL cholesterol relative to control; human CETP/human apoA-1 transgenic mice
# Method: Assay of Plasma Lipids In Vivo
# Activity of compounds of this invention in vivo can be determined by comparing the level of elevation of HDL cholesterol relative to control by a given amount of a compound in a CETP-containing animal species. A strain of transgenic mice that express both human CETP and human apolipoprotein A-1 (Taconic, Germantown, N.Y.) is used to test compounds of this invention. Test compounds are administered once orally in selected aqueous or oil based vehicles. At various times after dosing, ranging from 4 h to 24 h, blood is obtained. Blood is allowed to clot and serum is obtained by centrifugation. HDL cholesterol levels in the serum is determined by HDL-C plus reagents (Roche/Hitachi, Indianapolis, Ind.) with a clinical chemistry analyzer (Roche/Hitachi, Indianapolis, Ind.). Additional serum lipids can be analyzed by enzymatic methods. Lipids in the VLDL, LDL and HDL fractions are analyzed by enzymatic methods after precipitation or size exclusion chromatography.
row,SMILES,% HDL cholesterol increase [%]
1,"CCC1CC(N(Cc2cc(C(F)(F)F)cc(C(F)(F)F)c2)c2nnn(C)n2)c2nc(OC)ccc2N1C(=O)OC(C)C (racemic) [Example 8, (+/−)-cis-4-[(3,5-Bis-trifluoromethyl-benzyl)-2-methyl-2H-tetrazol-5-yl)-amino]-2-ethyl-6-methoxy-3,4-dihydro-2H-[1,5]naphthyridine-1-carboxylic acid isopropyl ester]",313
2,"CC(C)OC(=O)N1c2ccc(C(F)(F)F)nc2C(N(Cc2cc(C(F)(F)F)cc(C(F)(F)F)c2)c2nnn(C)n2)CC1C1CC1 (racemic) [Example 52, (+/−)-cis-4-[(3,5-Bis-trifluoromethyl-benzyl)-(2methyl-2H-tetrazole-5-yl)-amino]-2-cyclopropyl-6-trifluoromethyl-3,4-dihydro-2H-[1,5]naphthyridine-1-carboxylic acid isopropyl ester]",66
3,"CC[C@H]1C[C@@H](N(Cc2cc(C(F)(F)F)cc(C(F)(F)F)c2)c2nnn(CCO)n2)c2nc(C(F)(F)F)ccc2N1C(=O)OC(C)C (stereo in doubt) [Example 18, (2S,4R)-4-[(3,5-Bis-trifluoromethyl-benzyl)-[2-(2-hydroxy-ethyl)-2H-tetrazol-5-yl)-amino]-2-ethyl-6-trifluoromethyl-3,4-dihydro-2H-[1,5]naphthyridine-1-carboxylic acid isopropyl ester]",187
4,CC[C@@H]1C[C@H](N(Cc2cc(C(F)(F)F)cc(C(F)(F)F)c2)c2nnn(C)n2)c2nc(C(F)(F)F)ccc2N1C(=O)OC(C)C [Example 11],134
5,"CC[C@@H]1C[C@H](N(Cc2cc(C(F)(F)F)cc(C(F)(F)F)c2)c2nnn(CCN)n2)c2nc(C(F)(F)F)ccc2N1C(=O)OC(C)C [Example 15, (2R,4S)-cis-4-[[2-(2-Amino-ethyl)-2H-tetrazol-5-yl]-(3,5-bis-trifluoromethyl-benzyl)-amino]-2-ethyl-6-trifluoromethyl-3,4-dihydro-2H-[1,5]naphthyridine-1-carboxylic acid isopropyl ester]",91
